Measurements: patent publication EP0222670A1, “Dissolved composition of (benzo-1,2,4-thiadiazine)-1,1-dioxide” (SHISEIDO COMPANY LIMITED, priority 1985, dated 1987)

Test: solubilities of the dioxide in various solvents at room temperature
Type: physicochemical
Design: key: completely and transparently dissolved; x: partially not dissolved, with presence of crystals
Description: The solubilities of 7-chloro-3-methyl-2H[benzo-l,2,4-thiadiazine]-l,l-dioxide in various solvents at room temperature are shown in Table l.
• *l: The dioxide is 7-chloro-3-methyl-2H-[benzo-l,2,4-thiadiazine]-l,l-dioxide • *2: Dipropylene glycol
In the Table, o: completely and transparently dissolved; x: partially not dissolved, with presence of crystals.

- solubility of Dioxide in solvent (solvent BA, Dioxide 0.2 % by weight): o
- solubility of Dioxide in solvent (solvent BA, Dioxide 1.0 % by weight): o
- solubility of Dioxide in solvent (solvent BA, Dioxide 2.0 % by weight): x
- solubility of Dioxide in solvent (solvent BA, Dioxide 3.0 % by weight): x
- solubility of Dioxide in solvent (solvent BA/IPA = 1/9, Dioxide 0.2 % by weight): o
- solubility of Dioxide in solvent (solvent BA/IPA = 1/9, Dioxide 1.0 % by weight): o
- solubility of Dioxide in solvent (solvent BA/IPA = 1/9, Dioxide 2.0 % by weight): x
- solubility of Dioxide in solvent (solvent BA/IPA = 1/9, Dioxide 3.0 % by weight): x
- solubility of Dioxide in solvent (solvent BA/IPA/aqueous alkali solution (pH = 10) = 1/3/6, Dioxide 0.2 % by weight): o
- solubility of Dioxide in solvent (solvent BA/IPA/aqueous alkali solution (pH = 10) = 1/3/6, Dioxide 1.0 % by weight): o
- solubility of Dioxide in solvent (solvent BA/IPA/aqueous alkali solution (pH = 10) = 1/3/6, Dioxide 2.0 % by weight): o
- solubility of Dioxide in solvent (solvent BA/IPA/aqueous alkali solution (pH = 10) = 1/3/6, Dioxide 3.0 % by weight): o
- solubility of Dioxide in solvent (solvent DMSO, Dioxide 0.2 % by weight): o
- solubility of Dioxide in solvent (solvent DMSO, Dioxide 1.0 % by weight): o
- solubility of Dioxide in solvent (solvent DMSO, Dioxide 2.0 % by weight): o
- solubility of Dioxide in solvent (solvent DMSO, Dioxide 3.0 % by weight): o
- solubility of Dioxide in solvent (solvent DPG (Dipropylene glycol), Dioxide 0.2 % by weight): x
- solubility of Dioxide in solvent (solvent DPG (Dipropylene glycol), Dioxide 1.0 % by weight): x
- solubility of Dioxide in solvent (solvent DPG (Dipropylene glycol), Dioxide 2.0 % by weight): x
- solubility of Dioxide in solvent (solvent DPG (Dipropylene glycol), Dioxide 3.0 % by weight): x
- solubility of Dioxide in solvent (solvent Ethyl alcohol, Dioxide 0.2 % by weight): x
- solubility of Dioxide in solvent (solvent Ethyl alcohol, Dioxide 1.0 % by weight): x
- solubility of Dioxide in solvent (solvent Ethyl alcohol, Dioxide 2.0 % by weight): x
- solubility of Dioxide in solvent (solvent Ethyl alcohol, Dioxide 3.0 % by weight): x
- solubility of Dioxide in solvent (solvent IPA, Dioxide 0.2 % by weight): o
- solubility of Dioxide in solvent (solvent IPA, Dioxide 1.0 % by weight): x
- solubility of Dioxide in solvent (solvent IPA, Dioxide 2.0 % by weight): x
- solubility of Dioxide in solvent (solvent IPA, Dioxide 3.0 % by weight): x
- solubility of Dioxide in solvent (solvent IPA/DPG = 1/1, Dioxide 0.2 % by weight): o
- solubility of Dioxide in solvent (solvent IPA/DPG = 1/1, Dioxide 1.0 % by weight): x
- solubility of Dioxide in solvent (solvent IPA/DPG = 1/1, Dioxide 2.0 % by weight): x
- solubility of Dioxide in solvent (solvent IPA/DPG = 1/1, Dioxide 3.0 % by weight): x
- solubility of Dioxide in solvent (solvent IPA/DPG/aqueous alkali solution (pH = 10) = 2/1/1, Dioxide 0.2 % by weight): o
- solubility of Dioxide in solvent (solvent IPA/DPG/aqueous alkali solution (pH = 10) = 2/1/1, Dioxide 1.0 % by weight): o
- solubility of Dioxide in solvent (solvent IPA/DPG/aqueous alkali solution (pH = 10) = 2/1/1, Dioxide 2.0 % by weight): o
- solubility of Dioxide in solvent (solvent IPA/DPG/aqueous alkali solution (pH = 10) = 2/1/1, Dioxide 3.0 % by weight): o
Substance: 7-chloro-3-methyl-2H-[benzo-l,2,4-thiadiazine]-l,l-dioxide
